Reference: ChEMBL document CHEMBL1141133, “Synthesis of a resveratrol analogue with high ceramide-mediated proapoptotic activity on human breast cancer cells” (J Med Chem, 2005)

System: MDA-MB-231
Assay: Inhibitory concentration required for antiproliferative activity against human MDA-MB-231 cells
Type: functional, cell-based

Compound | IC50 [µM]
COc1cc(OC)cc(-c2ccc3cc(O)ccc3c2)c1 | 7.2
COc1ccc(/C=C/c2cc(OC)cc(OC)c2)cc1 [TRISMETHOXYRESVERATROL] | 1.2
Oc1cc(O)cc(-c2ccc3cc(O)ccc3c2)c1 | 12.7
COc1cc(/C=C/c2ccc(O)cc2)cc(OC)c1 [PTEROSTILBENE] | 10
COc1ccc(/C=C/c2cc(O)cc(O)c2)cc1 [RESVERATROL 4'-METHYL ETHER] | > 50

The next lines start with the values.

IC50 [µM] | Compound
45.1 | COc1cc(OC)cc(-c2ccc3cc(OC)ccc3c2)c1
20.5 | Oc1ccc(/C=C/c2cc(O)cc(O)c2)cc1 [RESVERATROL]
28.3 | COc1ccc2cc(-c3cc(O)cc(O)c3)ccc2c1
